Patent US20220047563A1, “COMBINATION THERAPY FOR THE TREATMENT OF ESTROGEN-RECEPTOR POSITIVE BREAST CANCER” (ZENITH EPIGENETICS LTD., priority 2018, published 2022)

Assays:
Type in all cases: cell-based
[1] = tested on: MCF7, Palbo-R-MCF7, ZR-75-1, Abema-R MCF7, and Palbo-R ZR-75-1 cells; test: Cell viability (CellTiter Fluor), combination of Compound I with abemaciclib, ER+ breast cancer cell line panel; details: 7 days
Method: (§1) MCF7, Palbo-R-MCF7, ZR-75-1, Abema-R MCF7, and Palbo-R ZR-75-1 cells were plated at a density of 7,500 cells per well in 96 well flat bottom plates in 1640-RPMI media containing 10% FBS and penicillin/streptomycin and incubated for 24 hours at 37° C., 5% CO2. Media was replaced with 1640-RPM I containing 10% FBS with constant ratios of either Compound I or abemaciclib as single agents, or a combination of both drugs at four different concentrations (2× IC50, 1× IC50, 0.5× IC50, 0.25× IC50), and incubated at 37° C., 5% CO2 for 7 days. The cells were retreated as described above on the 3rd or 4th day. Triplicate wells were used for each concentration and wells containing only media with 0.1% DMSO were used as a control. […] Fluorescence at 380-400 nm Excitation/505 nm Emission was read in a fluorometer and the percentage of cell titer relative to DMSO-treated cells was calculated after correcting for background by subtracting the blank well's signal. IC50 values for single agents were calculated using the GraphPad Prism software. Quantification of synergy was done by calculating combination indices (CI) using the CalcuSyn software (Biosoft) based on the Chou-Talalay algorithm (Chou and Talalay, 1984), and averaging the CI values for the effective doses (ED) 50, 75, and 90.

Palbo-R ZR-75-1 cells = test: Cell viability (CellTiter Fluor), combination of Compound I with abemaciclib, Palbo-R ZR-75-1; details: 7 days, average of CI at ED50, 75, 90 (Chou-Talalay)
Method: as §1

WT-MCF7 cells [2] = test: Cell viability (CellTiter Fluor), combination of Compound I with abemaciclib, WT-MCF7; details: 7 days, average of CI at ED50, 75, 90 (Chou-Talalay)
Method: as §1

Palbo-R-MCF7 cells = test: Cell viability (CellTiter Fluor), combination of Compound I with abemaciclib, Palbo-R-MCF7; details: 7 days, average of CI at ED50, 75, 90 (Chou-Talalay)
Method: as §1

Abema-R MCF7 cells = test: Cell viability (CellTiter Fluor), combination of Compound I with abemaciclib, Abema-R MCF7; details: 7 days, average of CI at ED50, 75, 90 (Chou-Talalay)
Method: as §1

WT-MCF7 cells [3] = test: Cell viability (CellTiter Fluor), combination of Compound I with fulvestrant, MCF7; details: 7 days
Method: MCF7 cells were plated at a density of 7,500 cells per well in 96 well flat bottom plates in phenol-red free 1640-RPMI media containing 10% charcoal-stripped FBS and penicillin/streptomycin and incubated for 24 hours at 37° C., 5% CO2. Media was replaced with phenol-red free 1640-RPM I media containing 10% charcoal-stripped FBS and penicillin/streptomycin treated with constant ratios of either Compound I or fulvestrant as single agents, or a combination of both drugs at four different concentrations (2× IC50, 1× IC50, 0.5× IC50, 0.25× IC50), and incubated at 37° C., 5% CO2 for 7 days. The cells were retreated as described above on the 3rd or 4th day. Triplicate wells were used for each concentration and wells containing only media with 0.1% DMSO were used as a control. […] Fluorescence at 380-400 nm Excitation/505 nm Emission was read in a fluorometer and the percentage of cell titer relative to DMSO-treated cells was calculated after correcting for background by subtracting the blank well's signal. IC50 values for single agents were calculated using the GraphPad Prism software. Quantification of synergy was done by calculating combination indices (CI) using the CalcuSyn software (Biosoft) based on the Chou-Talalay algorithm (Chou and Talalay, 1984), and averaging the CI values for the effective doses (ED) 50, 75, and 90.

ZR-75-1 cells = test: Cell viability (CellTiter Fluor), combination of Compound I with abemaciclib, ZR-75-1; details: 7 days, average of CI at ED50, 75, 90 (Chou-Talalay)
Method: as §1

SMILES: CNc1nc2ncc(-c3c(C)noc3C)cc2n1Cc1ccccc1 [Compound I, 1-benzyl-6-(3,5-dimethylisoxazol-4-yl)-N-methyl-1H-imidazo[4,5-b]pyridine-2-amine]
- inhibition of cell viability, combination versus single agents ([1]; addition of Compound I to abemaciclib, five cell lines): improved inhibition of cell viability compared to either single agent
- average CI value ([1]; combination with abemaciclib, depending upon the cell line (five cell lines)): 0.08-0.35
- CI (combination index) (Palbo-R ZR-75-1 cells): 0.35
- CI (combination index) (WT-MCF7 cells [2]): 0.08
- CI (combination index) (Palbo-R-MCF7 cells): 0.20
- CI (combination index) (Abema-R MCF7 cells): 0.30
- inhibition of cell viability, combination versus single agents (WT-MCF7 cells [3]; addition of Compound I to fulvestrant): improved inhibition of cell viability compared to either single agent
- CI (combination index) (WT-MCF7 cells [3]; combination with fulvestrant, charcoal-stripped FBS, phenol-red free media, average of CI at ED50, 75, 90 (Chou-Talalay)): 0.51
- CI (combination index) (ZR-75-1 cells): 0.14
